These are literature values, as cited in patent US10653742B2, “Anti-inflammatory use of liquid phytocomplexes from olive” (FATTORIA LA VIALLA DI GIANNI, ANTONIO E BANDINO LO …, priority 2013, dated 2020).

For this data set the following is noted: also in high concentrations.

For the compound `OCCc1ccc(O)c(O)c1` [Hydroxytyrosol], the “toxic effect on in vivo administration” value is “no toxic effect”.
